Our source for the inhibition and melting point values is patent US8263606B2 (Xenon Pharmaceuticals Inc., priority 2008, dated 2012).

Where a name gives a salt, the structure may show the parent alone.

The first data set deals with CYP3A4 (Homo sapiens, UniProt P08684). In words: Cytochrome P450 (CYP450) Inhibition Assay, CYP3A4 (Vivid fluorescence, BOMCC substrate). The note with it: human, P450 Baculosomes (recombinant CYP3A4), probe BOMCC (Vivid substrate).
Sequence of CYP3A4 (P08684 whole entry): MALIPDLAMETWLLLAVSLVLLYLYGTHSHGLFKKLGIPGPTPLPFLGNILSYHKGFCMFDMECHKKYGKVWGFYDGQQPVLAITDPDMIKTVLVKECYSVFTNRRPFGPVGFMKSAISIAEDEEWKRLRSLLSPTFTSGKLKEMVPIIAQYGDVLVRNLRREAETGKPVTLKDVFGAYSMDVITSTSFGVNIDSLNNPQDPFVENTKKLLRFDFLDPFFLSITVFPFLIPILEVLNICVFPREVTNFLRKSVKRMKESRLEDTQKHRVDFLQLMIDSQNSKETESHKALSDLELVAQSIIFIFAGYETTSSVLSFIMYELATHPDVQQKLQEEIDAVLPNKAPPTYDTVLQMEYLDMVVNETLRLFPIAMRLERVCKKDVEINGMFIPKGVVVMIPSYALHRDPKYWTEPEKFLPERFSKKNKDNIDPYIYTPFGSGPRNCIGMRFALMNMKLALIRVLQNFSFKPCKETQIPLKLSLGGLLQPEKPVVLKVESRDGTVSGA
Take `O=C1N(Cc2cc3ccccc3o2)c2ccccc2C12COc1cc3c(cc12)OCO3` (stereo not shown) [Example 1.8, 1′-(1-benzofuran-2-ylmethyl)spiro[furo[2,3-f][1,3]-benzodioxole-7,3′-indol]-2′(1′H)-one]: the inhibition at 10 µM was more than 50%.

`CN1C(=O)C2(COc3cc4c(cc32)OCCO4)c2c(C(=O)Oc3ccccc3)cccc21` (stereo not shown) [Example 2.53, phenyl 1′-methyl-2′-oxo-1′,2,2′,3-tetrahydrospiro[furo[2,3-g][1,4]benzodioxine-8,3′-indole]-4′-carboxylate]: the inhibition at 10 µM is more than 50%.

Test system in a further data set: not given
Experiment: not given
Conditions: not given
Regarding `CC(C)N1CCC(CN2C(=O)C3(COc4cc5c(cc43)CCO5)c3ccccc32)CC1.Cl` (stereo not shown), the melting point is 167 °C (dec.).

Consider `CCN1CCC(CN2C(=O)C3(COc4cc5c(cc43)CCO5)c3ccccc32)CC1.Cl` (stereo not shown), for which the melting point is 135 °C (dec.).

As to `CN1CCN(CN2C(=O)C3(COc4cc5c(cc43)OCO5)c3ccccc32)CC1` (stereo not shown) (as salt: chloride) [Example 11.63, 1′-[(4-methylpiperazin-1-yl)methyl]spiro[furo[2,3-f][1,3]benzodioxole-7,3′-indol]-2′(1′H)-one hydrogen chloride], the melting point was > 175 °C (dec.).

For the compound `COc1cc2c(cc1C)[C@@]1(CO2)C(=O)N(CN2CCN(C)CC2)c2ccccc21` (as salt: chloride) [Example 11.64, (3S)-6-methoxy-5-methyl-1′-[(4-methylpiperazin-1-yl)methyl]spiro[1-benzofuran-3,3′-indol]-2′(1′H)-one hydrogen chloride], the melting point was > 200 °C (dec.).

With `COc1cc2c(cc1C)[C@]1(CO2)C(=O)N(CN2CCN(C)CC2)c2ccccc21` (as salt: chloride) [Example 11.65, (3R)-6-methoxy-5-methyl-1′-[(4-methylpiperazin-1-yl)methyl]spiro[1-benzofuran-3,3′-indol]-2′(1′H)-one hydrogen chloride], the melting point was > 200 °C (dec.).

As to `CN1CCN(CN2C(=O)C3(COc4cc5c(cc43)CCO5)c3ccccc32)CC1` (stereo not shown) (as salt: hydrochloride), the melting point was 181 °C (dec.).

`CN1CCC(CN2C(=O)C3(COc4cc(F)c(F)cc43)c3ccccc32)CC1` (stereo not shown) (as salt: hydrochloride) [Example 11.112, 5,6-difluoro-1′-[(1-methylpiperidin-4-yl)methyl]spiro[1-benzofuran-3,3′-indol]-2′(1′H)-one hydrochloride] showed a melting point of 162 to 164 °C.

Compound `Cc1noc2cc3c(cc12)C1(CO3)C(=O)N(Cc2ccc(-c3cc(N)n[nH]3)cc2)c2ccccc21` (stereo not shown) (as salt: hydrochloride) [Example 29.1, 1′-[4-(3-amino-1H-pyrazol-5-yl)benzyl]-3-methylspiro[furo[3,2-f][1,2]benzisoxazole-5,3′-indol]-2′(1′H)-one hydrochloride] showed a melting point of 191 to 195 °C.

The compound `Nc1cc(-c2ccc(CN3C(=O)C4(COc5cc6c(cc54)OCCO6)c4ccccc43)cc2)[nH]n1` (stereo not shown) (as salt: hydrochloride) [Example 29.2, 1′-[4-(3-amino-1H-pyrazol-5-yl)benzyl]-2,3-dihydrospiro[furo[2,3-g][1,4]benzodioxine-8,3′-indol]-2′(1′H)-one hydrochloride] had a melting point of 198 to 201 °C.

Regarding `O=C1N(Cc2ccc(N[C@@H]3CCNC3)cc2)c2ccccc2C12COc1cc(F)c(F)cc12` (stereo partly drawn) (as salt: hydrochloride) [Example 33.2, 5,6-difluoro-1′-{4-[(3R)-pyrrolidin-3-ylamino]benzyl}spiro[1-benzofuran-3,3′-indol]-2′(1′H)-one hydrochloride], the melting point is 153 to 162 °C.

As for `O=C1N(Cc2cc3ccccc3o2)c2ccccc2C12COc1cc3c(cc12)OCO3` (stereo not shown) [Example 1.8, 1′-(1-benzofuran-2-ylmethyl)spiro[furo[2,3-f][1,3]-benzodioxole-7,3′-indol]-2′(1′H)-one], the melting point lay in the range of 167 to 168 °C.

In turn, `O=C1N(C(c2ccccc2)c2ccccc2)c2ccc(F)cc2C12COc1cc3c(cc12)CCO3` (stereo not shown) [Example 2.4, 1′-(diphenylmethyl)-5′-fluoro-5,6-dihydrospiro[benzo[1,2-b:5,4-b′]difuran-3,3′-indol]-2′(1′H)-one] had a melting point of 228 to 229 °C.

The compound `O=C1N(C(c2ccccc2)c2ccccc2)c2cc(F)ccc2C12COc1cc3c(cc12)CCO3` (stereo not shown) [Example 2.5, 1′-(diphenylmethyl)-6′-fluoro-5,6-dihydrospiro[benzo[1,2-b:5,4-b′]difuran-3,3′-indol]-2′(1′H)-one] registered a melting point of 194 to 196 °C.

Regarding `O=C1N(C(c2ccccc2)c2ccccc2)c2ccccc2C12COc1cc3c(cc12)CCCO3` (stereo not shown) [Example 2.12, 1′-(diphenylmethyl)-6,7-dihydro-5H-spiro[furo[3,2-g]chromene-3,3′-indol]-2′(1′H)-one], the melting point lay within 208 to 211 °C.

Compound `O=C1N(C(c2ccccc2)c2ccccc2)c2ccccc2C12COc1cc3c(cc12)OCCCO3` (stereo not shown) [Example 2.13, 1′-(diphenylmethyl)-3,4-dihydro-2H-spiro[furo[2,3-h][1,5]benzodioxepine-9,3′-indol]-2′(1′H)-one] gave a melting point of 165 to 168 °C.

On to `Cc1ccc(F)c2c1N(C(c1ccccc1)c1ccccc1)C(=O)C21COc2cc3c(cc21)CCO3` (stereo not shown) [Example 2.19, 1′-(diphenylmethyl)-4′-fluoro-7′-methyl-5,6-dihydrospiro[benzo[1,2-b:5,4-b′]difuran-3,3′-indol]-2′(1′H)-one], for which the melting point is 81 to 82 °C.

On to `O=C1N(C(c2ccccc2)c2ccccc2)c2c(F)cccc2C12COc1cc3c(cc12)CCO3` (stereo not shown) [Example 2.20, 1′-(diphenylmethyl)-7′-fluoro-5,6-dihydrospiro[benzo[1,2-b:5,4-b′]difuran-3,3′-indol]-2′(1′H)-one], for which the melting point is 183 to 184 °C.

Regarding `CN1C(=O)C2(COc3cc4c(cc32)OCCO4)c2c(C(=O)Oc3ccccc3)cccc21` (stereo not shown) [Example 2.53, phenyl 1′-methyl-2′-oxo-1′,2,2′,3-tetrahydrospiro[furo[2,3-g][1,4]benzodioxine-8,3′-indole]-4′-carboxylate], the melting point was in the range of 184 to 186 °C.

The compound `O=C1Nc2ccccc2C12COc1ccc3c(c12)OCCO3` (stereo not shown) [Example 3.43, 2,3-dihydrospiro[furo[3,2-f][1,4]benzodioxine-9,3′-indol]-2′(1′H)-one] had a melting point of 259 to 261 °C.

Compound `O=C1N(Cc2ccc(Br)cc2)c2ccccc2C12COc1cc3c(cc12)OCO3` (stereo not shown) [Example 4.1, 1′-(4-bromobenzyl)spiro[furo[2,3-f][1,3]benzodioxole-7,3′-indol]-2′(1′H)-one] registered a melting point of 148 to 150 °C.

Take `C[n+]1c(Cl)c[nH]c1CN1C(=O)C2(COc3cc4c(cc32)OCCO4)c2ccccc21` (stereo not shown) [Example 4.39, 1′-[(5-chloro-1-methyl-1H-imidazol-2-yl)methyl]-2,3-dihydrospiro[furo[2,3-g][1,4]benzodioxine-8,3′-indol]-2′(1′H)-one]: the melting point is 91 to 95 °C.

Compound `Cc1ccc2c(c1)C1(COc3cc4c(cc31)OCCO4)C(=O)N2Cc1ncccc1C(F)(F)F` (stereo not shown) [Example 4.115, 5′-methyl-1′-{[3-(trifluoromethyl)pyridin-2-yl]methyl}-2,3-dihydrospiro[furo[2,3-g][1,4]benzodioxine-8,3′-indol]-2′(1′H)-one] gave a melting point of 137 to 139 °C.

`N#CCN1C(=O)C2(COc3cc4c(cc32)OCCO4)c2ccccc21` (stereo not shown) [Example 5.24, (2′-oxo-2,3-dihydrospiro[furo[2,3-g][1,4]benzodioxine-8,3′-indol]-1′(2′H)-yl)acetonitrile] came in with a melting point of 161 to 162 °C.

`COc1ccc(CN2C(=O)C3(COc4cc5c(cc43)OCO5)c3ccccc32)cc1` (stereo not shown) [Example 7, 1′-(4-methoxybenzyl)spiro[furo[2,3-f][1,3]benzodioxole-7,3′-indol]-2′(1′H)-one] yielded a melting point of 147 to 148 °C.

Compound `CCCCCN1C(=O)[C@@]2(COc3cc4c(cc32)OCCO4)c2ccccc21` [Example 7.3, (S)-1-pentyl-2,3-dihydrospiro[furo[2,3-g][1,4]benzodioxine-8,3′-indol]-2′(1′H)-one] registered a melting point of 111 to 113 °C.

Take `O=C1N(C[C@@H]2CCCN2)c2ccccc2C12COc1cc3c(cc12)CCO3` (stereo partly drawn) [Example 11.11, 1′-[(2S)-pyrrolidin-2-ylmethyl]-5,6-dihydrospiro[benzo[1,2-b:5,4-b′]difuran-3,3′-indol]-2′(1′H)-one]: the melting point was in the range of 83 to 86 °C.

In turn, `CC(C)NC(=O)N1CCC(CN2C(=O)C3(COc4cc5c(cc43)CCO5)c3ccccc32)C1` (stereo not shown) [Example 11.62, N-(1-methylethyl)-3-[(2′-oxo-5,6-dihydrospiro[benzo[1,2-b:5,4-b′]difuran-3,3′-indol]-1′(2′H)-yl)methyl]pyrrolidine-1-carboxamide] came in with a melting point of 107 to 115 °C.

`O=C(O)CN1C(=O)C2(COc3cc4c(cc32)OCCO4)c2ccccc21` (stereo not shown) [Example 11.76, (2′-oxo-2,3-dihydrospiro[furo[2,3-g][1,4]benzodioxine-8,3′-indol]-1′(2′H)-yl)acetic acid] returned a melting point of 193 to 196 °C.

On to `Cc1noc2cc3c(cc12)C1(CO3)C(=O)N(Cc2nc(C(=O)N(C)C)co2)c2ccccc21` (stereo not shown) [Example 13.9, N,N-dimethyl-2-[(3-methyl-2′-oxospiro[furo[3,2-f][1,2]benzisoxazole-5,3′-indol]-1′(2′H)-yl)methyl]-1,3-oxazole-4-carboxamide], for which the melting point lay within 87 to 89 °C.

On to `CN1C(=O)C2(COc3cc4c(cc32)OCCO4)c2c(C(=O)NC3CC3)cccc21` (stereo not shown) [Example 16.40, N-cyclopropyl-1′-methyl-2′-oxo-1′,2,2′,3-tetrahydrospiro[furo[2,3-g][1,4]benzodioxine-8,3′-indole]-4′-carboxamide], for which the melting point was 127 to 128 °C.

In turn, `CN1C(=O)C2(COc3cc4c(cc32)OCCO4)c2c(C(N)=O)cccc21` (stereo not shown) [Example 16.72, 1′-methyl-2′-oxo-1′,2,2′,3-tetrahydrospiro[furo[2,3-g][1,4]benzodioxine-8,3′-indole]-4′-carboxamide] showed a melting point of more than 250 °C.

In turn, `CNC(=O)c1cccc2c1C1(COc3cc4c(cc31)OCCO4)C(=O)N2C` (stereo not shown) [Example 16.76, N,1′-dimethyl-2′-oxo-1′,2,2′,3-tetrahydrospiro[furo[2,3-g][1,4]benzodioxine-8,3′-indole]-4′-carboxamide] showed a melting point of 120 to 122 °C.
